Values of other authors as cited in patent US20120149888A1, “SYNTHESIS OF ARA-2'-O-METHYL-NUCLEOSIDES, CORRESPONDING PHOSPHORAMIDITES AND OLIGONUCLEOTIDES INCORPORATING NOVEL MODIFICATIONS FOR BIOLOGICAL APPLICATION IN THERAPEUCTICS, DIAGNOSTICS, G- TETRAD FORMING OLIGONUCLEOTIDES AND APTAMERS” (priority 2009, published 2012).

What was measured:
[1] = tested on: equilibrative NBMPR-sensitive nucleoside transporter (es); conditions: growth-inhibitory concentrations
[2] = tested on: explants of intact rat colonic mucosa
[3] = tested on: L1210/CA; conditions: 1β-D-Arabinofuranosylcytosine-resistant L1210/CA
[4] = tested on: P815; conditions: 1β-D-Arabinofuranosylcytosine-resistant P815
[5] = tested on: L1210/ara-C; conditions: L1210/ara-C (Schabel et al., 1971)
[6] = tested on: ara-C-resistant neoplasms; conditions: several other ara-C-resistant neoplasms

## NC(=O)NO [hydroxyurea]
[1]
  expression of es: increases
[2]
  incorporation of tritiated TdR into DNA: reduced
[3]
  Response to chemotherapeutic drugs: Same as parent line: Hydroxyurea
[4]
  Response to chemotherapeutic drugs: Same as parent line: Hudroxyurea
[5]
  Response to chemotherapeutic drugs: Same as parent line: Hydroxyurea
[6]
  cross-resistance of ara-C-resistant neoplasms to the drug: no cross-resistance
